Laboratory results: US8232407B2, “Nitrogenous heterocyclic compounds with insecticidal activity, and the preparation and use thereof” (East China University of Science and Technology, priority 2008, dated 2012)
Where two headings read alike, the source gives them in different places.

Key:
Assay type in all cases: in vivo
Plutella xylostella = assay: Insecticidal activities to diamondback moth, feeding dipped leaves; conditions: for Plutella xylostella Mortality (%) 500 ppm: in vivo; for mortality at 500 ppm: Plutella xylostella, read-out: Plutella xylostella Mortality (%) 500 ppm
Summary of the method: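 Mortality was scored 24 h after larvae of Plutella xylostella (10 per treatment, 3 repeats) fed on cabbage leaves immersed 3 s in test solution and dried at room temperature. It was computed relative to survivors in a water-treated control.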

Nilaparvata lugens = assay: Insecticidal activities to plant hopper, spraying method; conditions: for Nilaparvata lugens Mortality (%) 500 ppm: in vivo; for mortality at 500 ppm: Nilaparvata lugens, read-out: Nilaparvata lugens Mortality (%) 500 ppm
Summary of the method: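 Spray test: acetone solutions of 500 down to 0.79 ppm, 2 ml per tumbler holding 10 planthoppers introduced 6 h earlier, triplicate, aqueous acetone as control. Mortality at 24 h calculated from survivors relative to control.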

[1] = tested on: Pseudaletia separate Walker; assay: Insecticidal activities to armyworm, leaf dipping and feeding
Summary of the method: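 Armyworms (10 per tumbler, 3 replicates) ate fresh maize leaves that had been immersed for 3 seconds in compound solutions of 1.57-500 ppm in acetone, or in aqueous acetone for controls. Kills were scored at 24 h, and mortality was calculated relative to survivors in the control group.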

Aphis craccivoral = assay: Insecticidal activities to aphids, immersion method; conditions: for Aphis craccivoral Mortality (%) 500 ppm: in vivo; for mortality at 500 ppm: Aphis, read-out: Aphis craccivoral Mortality (%) 500 ppm
Summary of the method: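 Immersion assay: compound diluted from 10 g/L DMF stock to 500 ppm in 0.2 mL/L Triton X-100, sprout-feeding wingless adults dipped 5 s. Kept at 23° C, three repeats; 24 h mortality calculated relative to surviving Triton-treated controls.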

[2] = 500 ppm, leaf dipping and feeding, counted after 24 hours

Cc1ccc(C=C(C2=NCCN2Cc2cnc(Cl)s2)[N+](=O)[O-])o1 [Compound 79]
Plutella xylostella Mortality (%) 500 ppm (Plutella xylostella): 100% | Nilaparvata lugens Mortality (%) 500 ppm (Nilaparvata lugens): 100% | Pseudaletia separate Walker Mortality (%) 500 ppm ([1]; in vivo): 100% | Aphis craccivoral Mortality (%) 500 ppm (Aphis craccivoral): 100%

O=[N+]([O-])C(=Cc1ccc(CO)s1)C1=NCCN1Cc1ccc(Cl)nc1 [Compound 30]
Plutella xylostella Mortality (%) 500 ppm (Plutella xylostella): 100% | Nilaparvata lugens Mortality (%) 500 ppm (Nilaparvata lugens): 100% | Pseudaletia separate Walker Mortality (%) 500 ppm ([1]; in vivo): 100% | Aphis craccivoral Mortality (%) 500 ppm (Aphis craccivoral): 100%

O=[N+]([O-])/C(=C/c1ccc([N+](=O)[O-])o1)C1=NCCN1Cc1cnc(Cl)s1 [Compound 70]
mortality at 500 ppm (Plutella xylostella; 24 h): 100% | mortality at 500 ppm (Nilaparvata lugens; 24 h): 100% | Pseudaletia separate Walker Mortality (%) 500 ppm [1, 2]: 98% | mortality at 500 ppm (Aphis craccivoral): 100%

CC(=C(C1=NCCN1Cc1ccc(Cl)nc1)[N+](=O)[O-])c1cc(Cl)cs1 [Compound 120]
Plutella xylostella Mortality (%) 500 ppm (Plutella xylostella): 68% | Nilaparvata lugens Mortality (%) 500 ppm (Nilaparvata lugens): 86% | Pseudaletia separate Walker Mortality (%) 500 ppm ([1]; in vivo): 59% | Aphis craccivoral Mortality (%) 500 ppm (Aphis craccivoral): 52%

O=[N+]([O-])C(=Cc1cc(Cl)c(Cl)o1)C1=NCCCN1Cc1ccc(Cl)nc1 [Compound 53]
Plutella xylostella Mortality (%) 500 ppm (Plutella xylostella): 100% | Nilaparvata lugens Mortality (%) 500 ppm (Nilaparvata lugens): 100% | Pseudaletia separate Walker Mortality (%) 500 ppm ([1]; in vivo): 100% | Aphis craccivoral Mortality (%) 500 ppm (Aphis craccivoral): 100%

C[N+]1=C(C(=Cc2oc(Br)cc2Br)[N+](=O)[O-])N(Cc2ccc(Cl)nc2)CC1.[Cl-] [Compound 254]
Plutella xylostella Mortality (%) 500 ppm (Plutella xylostella): 100% | Nilaparvata lugens Mortality (%) 500 ppm (Nilaparvata lugens): 100% | Pseudaletia separate Walker Mortality (%) 500 ppm ([1]; in vivo): 100% | Aphis craccivoral Mortality (%) 500 ppm (Aphis craccivoral): 100%

O=[N+]([O-])/C(=C/c1ccco1)C1=NCCN1Cc1cnc(Cl)s1 [Compound 68, 1-((2-chlorothiozol-5-yl)methyl)-2-(2-(furan-2-yl)-1-nitrovinyl)-4,5-dihydro-1H-imidazole]
mortality at 500 ppm (Plutella xylostella; 500 ppm, feeding dipped leaves, counted after 24 hours): 100% | mortality at 500 ppm (Nilaparvata lugens; 500 ppm, spraying method, counted after 24 hours): 100% | Pseudaletia separate Walker Mortality (%) 500 ppm [1, 2]: 100% | mortality at 500 ppm (Aphis craccivoral; 500 ppm, immersion method): 100%

O=[N+]([O-])C(=Cc1cnc[nH]1)C1=NCCN1Cc1ccc(Cl)nc1 [Compound 36]
Plutella xylostella Mortality (%) 500 ppm (Plutella xylostella): 100% | Nilaparvata lugens Mortality (%) 500 ppm (Nilaparvata lugens): 89% | Pseudaletia separate Walker Mortality (%) 500 ppm ([1]; in vivo): 100% | Aphis craccivoral Mortality (%) 500 ppm (Aphis craccivoral): 98%

O=[N+]([O-])C(=Cc1ccc([N+](=O)[O-])o1)C1=NCCCN1Cc1ccc(Cl)nc1 [Compound 48]
Plutella xylostella Mortality (%) 500 ppm (Plutella xylostella): 100% | Nilaparvata lugens Mortality (%) 500 ppm (Nilaparvata lugens): 100% | Pseudaletia separate Walker Mortality (%) 500 ppm ([1]; in vivo): 100% | Aphis craccivoral Mortality (%) 500 ppm (Aphis craccivoral): 100%

C[N+]1=C(/C(=C\c2ccc[nH]2)[N+](=O)[O-])N(Cc2cnc(Cl)s2)CC1.[Cl-] [Compound 284]
Plutella xylostella Mortality (%) 500 ppm (Plutella xylostella): 100% | Nilaparvata lugens Mortality (%) 500 ppm (Nilaparvata lugens): 100% | Pseudaletia separate Walker Mortality (%) 500 ppm ([1]; in vivo): 100% | Aphis craccivoral Mortality (%) 500 ppm (Aphis craccivoral): 100%

Cc1ccc(C=C(C2=[N+](C)CCN2Cc2ccc(Cl)nc2)[N+](=O)[O-])s1.[Cl-] [Compound 270]
Plutella xylostella Mortality (%) 500 ppm (Plutella xylostella): 100% | Nilaparvata lugens Mortality (%) 500 ppm (Nilaparvata lugens): 100% | Pseudaletia separate Walker Mortality (%) 500 ppm ([1]; in vivo): 100% | Aphis craccivoral Mortality (%) 500 ppm (Aphis craccivoral): 100%

CC[N+]1=C(C(=Cc2ccc(Cl)o2)[N+](=O)[O-])N(Cc2ccc(Cl)nc2)CC1.[Cl-] [Compound 288]
Plutella xylostella Mortality (%) 500 ppm (Plutella xylostella): 100% | Nilaparvata lugens Mortality (%) 500 ppm (Nilaparvata lugens): 100% | Pseudaletia separate Walker Mortality (%) 500 ppm ([1]; in vivo): 100% | Aphis craccivoral Mortality (%) 500 ppm (Aphis craccivoral): 100%

Cc1ccc(C=C(C2=NCCN2Cc2ccc(Cl)nc2)[N+](=O)[O-])cn1 [Compound 42]
Plutella xylostella Mortality (%) 500 ppm (Plutella xylostella): 90. % | Nilaparvata lugens Mortality (%) 500 ppm (Nilaparvata lugens): 36% | Pseudaletia separate Walker Mortality (%) 500 ppm ([1]; in vivo): 87% | Aphis craccivoral Mortality (%) 500 ppm (Aphis craccivoral): 45%

O=[N+]([O-])C(=Cc1oc(Cl)cc1Cl)C1=NCCN1Cc1ccccc1 [Compound 109]
Plutella xylostella Mortality (%) 500 ppm (Plutella xylostella): 56% | Nilaparvata lugens Mortality (%) 500 ppm (Nilaparvata lugens): 100% | Pseudaletia separate Walker Mortality (%) 500 ppm ([1]; in vivo): 60% | Aphis craccivoral Mortality (%) 500 ppm (Aphis craccivoral): 91%

CC[N+]1=C(C(=Cc2ccco2)[N+](=O)[O-])N(Cc2ccc(Cl)nc2)CC1.[Cl-] [Compound 285]
Plutella xylostella Mortality (%) 500 ppm (Plutella xylostella): 100% | Nilaparvata lugens Mortality (%) 500 ppm (Nilaparvata lugens): 100% | Pseudaletia separate Walker Mortality (%) 500 ppm ([1]; in vivo): 100% | Aphis craccivoral Mortality (%) 500 ppm (Aphis craccivoral): 100%

O=[N+]([O-])C(=Cc1cc(Br)c(Br)o1)C1=NCCN1Cc1ccc(Cl)nc1 [Compound 10]
Plutella xylostella Mortality (%) 500 ppm (Plutella xylostella): 100% | Nilaparvata lugens Mortality (%) 500 ppm (Nilaparvata lugens): 100% | Pseudaletia separate Walker Mortality (%) 500 ppm ([1]; in vivo): 100% | Aphis craccivoral Mortality (%) 500 ppm (Aphis craccivoral): 100%

C[N+]1=C(C(=Cc2cccs2)[N+](=O)[O-])N(Cc2cnc(Cl)s2)CC1.[Cl-] [Compound 280]
Plutella xylostella Mortality (%) 500 ppm (Plutella xylostella): 100% | Nilaparvata lugens Mortality (%) 500 ppm (Nilaparvata lugens): 100% | Pseudaletia separate Walker Mortality (%) 500 ppm ([1]; in vivo): 100% | Aphis craccivoral Mortality (%) 500 ppm (Aphis craccivoral): 100%

O=[N+]([O-])C(=Cc1cc(Cl)co1)C1=NCCN1CC1CCOC1 (stereo not drawn) [Compound 96]
Plutella xylostella Mortality (%) 500 ppm (Plutella xylostella): 52% | Nilaparvata lugens Mortality (%) 500 ppm (Nilaparvata lugens): 50% | Pseudaletia separate Walker Mortality (%) 500 ppm ([1]; in vivo): 58% | Aphis craccivoral Mortality (%) 500 ppm (Aphis craccivoral): 32%

O=[N+]([O-])C(=Cc1ccoc1)C1=NCCN1Cc1ccccc1 [Compound 104]
Plutella xylostella Mortality (%) 500 ppm (Plutella xylostella): 81% | Nilaparvata lugens Mortality (%) 500 ppm (Nilaparvata lugens): 100% | Pseudaletia separate Walker Mortality (%) 500 ppm ([1]; in vivo): 79% | Aphis craccivoral Mortality (%) 500 ppm (Aphis craccivoral): 96%

CCc1ccc(C=C(C2=NCCN2Cc2ccc(Cl)nc2)[N+](=O)[O-])s1 [Compound 29]
Plutella xylostella Mortality (%) 500 ppm (Plutella xylostella): 100% | Nilaparvata lugens Mortality (%) 500 ppm (Nilaparvata lugens): 100% | Pseudaletia separate Walker Mortality (%) 500 ppm ([1]; in vivo): 100% | Aphis craccivoral Mortality (%) 500 ppm (Aphis craccivoral): 100%

C[N+]1=C(C(=Cc2sc(Cl)cc2Cl)[N+](=O)[O-])N(Cc2ccc(Cl)nc2)CC1.[Cl-] [Compound 267]
Plutella xylostella Mortality (%) 500 ppm (Plutella xylostella): 100% | Nilaparvata lugens Mortality (%) 500 ppm (Nilaparvata lugens): 100% | Pseudaletia separate Walker Mortality (%) 500 ppm ([1]; in vivo): 100% | Aphis craccivoral Mortality (%) 500 ppm (Aphis craccivoral): 100%

O=[N+]([O-])C(=Cc1ccc(Cl)o1)C1=NCCCN1Cc1ccc(Cl)nc1 [Compound 49]
Plutella xylostella Mortality (%) 500 ppm (Plutella xylostella): 100% | Nilaparvata lugens Mortality (%) 500 ppm (Nilaparvata lugens): 100% | Pseudaletia separate Walker Mortality (%) 500 ppm ([1]; in vivo): 100% | Aphis craccivoral Mortality (%) 500 ppm (Aphis craccivoral): 100%

C[N+]1=C(C(=Cc2ccoc2)[N+](=O)[O-])N(Cc2ccc(Cl)nc2)CC1.[Cl-] [Compound 245]
Plutella xylostella Mortality (%) 500 ppm (Plutella xylostella): 100% | Nilaparvata lugens Mortality (%) 500 ppm (Nilaparvata lugens): 100% | Pseudaletia separate Walker Mortality (%) 500 ppm ([1]; in vivo): 100% | Aphis craccivoral Mortality (%) 500 ppm (Aphis craccivoral): 100%

C[N+]1=C(C(=Cc2ccc(CO)s2)[N+](=O)[O-])N(Cc2ccc(Cl)nc2)CC1.[Cl-] [Compound 273]
Plutella xylostella Mortality (%) 500 ppm (Plutella xylostella): 100% | Nilaparvata lugens Mortality (%) 500 ppm (Nilaparvata lugens): 100% | Pseudaletia separate Walker Mortality (%) 500 ppm ([1]; in vivo): 100% | Aphis craccivoral Mortality (%) 500 ppm (Aphis craccivoral): 100%

C[N+]1=C(C(=Cc2ccc(Br)o2)[N+](=O)[O-])N(Cc2ccc(Cl)nc2)CC1.[Cl-] [Compound 248]
Plutella xylostella Mortality (%) 500 ppm (Plutella xylostella): 100% | Nilaparvata lugens Mortality (%) 500 ppm (Nilaparvata lugens): 100% | Pseudaletia separate Walker Mortality (%) 500 ppm ([1]; in vivo): 100% | Aphis craccivoral Mortality (%) 500 ppm (Aphis craccivoral): 100%

O=[N+]([O-])C(=Cc1oc(Cl)cc1Cl)C1=NCCN1CC1CCOC1 (stereo not drawn) [Compound 99]
Plutella xylostella Mortality (%) 500 ppm (Plutella xylostella): 100% | Nilaparvata lugens Mortality (%) 500 ppm (Nilaparvata lugens): 97% | Pseudaletia separate Walker Mortality (%) 500 ppm ([1]; in vivo): 100% | Aphis craccivoral Mortality (%) 500 ppm (Aphis craccivoral): 87%

CCc1ccc(C=C(C2=NCCN2Cc2cnc(Cl)s2)[N+](=O)[O-])o1 [Compound 81]
Plutella xylostella Mortality (%) 500 ppm (Plutella xylostella): 100% | Nilaparvata lugens Mortality (%) 500 ppm (Nilaparvata lugens): 100% | Pseudaletia separate Walker Mortality (%) 500 ppm ([1]; in vivo): 100% | Aphis craccivoral Mortality (%) 500 ppm (Aphis craccivoral): 100%
